Measured values published in the supplement of paper PMC10307832.

How the values were obtained:
Experiment in all cases: relative viability (nuclei count vs DMSO), 5 days (fraction); higher = more cells survive
HCC-78 = tested on: HCC-78
How it was run: (§1)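 Relative viability is defined as nuclei in treated wells over nuclei in vehicle wells. Duplicate plates were run and medians reported. Lung cancer cell lines in 1536-well plates were dosed by pin tool one day after seeding, with one drug or with a fixed anchor-drug dose plus five library-drug doses (not always all listed) in √10 steps, and nuclei were counted after 5 days.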

SK-LU-1 = tested on: SK-LU-1
How it was run: as §1

NCI-H2085 = tested on: NCI-H2085
How it was run: as §1

NCI-H358 = tested on: NCI-H358
How it was run: as §1

NCI-H1666 = tested on: NCI-H1666
How it was run: as §1

NCI-H1915 = tested on: NCI-H1915
How it was run: as §1

EPLC-272H = tested on: EPLC-272H
How it was run: as §1

COR-L 105 = tested on: COR-L 105
How it was run: as §1

SW 900 = tested on: SW 900
How it was run: as §1

UMC-11 = tested on: UMC-11
How it was run: as §1

HOP-62 = tested on: HOP-62
How it was run: as §1

NCI-H1793 = tested on: NCI-H1793
How it was run: as §1

NCI-H460 = tested on: NCI-H460
How it was run: as §1

NCI-H1792 = tested on: NCI-H1792
How it was run: as §1

LU99A = tested on: LU99A
How it was run: as §1

NCI-H2170 = tested on: NCI-H2170
How it was run: as §1

NCI-H1944 = tested on: NCI-H1944
How it was run: as §1

HCC-366 = tested on: HCC-366
How it was run: as §1

A-427 = tested on: A-427
How it was run: as §1

NCI-H2009 = tested on: NCI-H2009
How it was run: as §1

LXF-289 = tested on: LXF-289
How it was run: as §1

LC-2-ad = tested on: LC-2-ad
How it was run: as §1

COc1cc2nccc(Oc3ccc(NC(=O)Nc4cc(C)on4)c(Cl)c3)c2cc1OC [Tivozanib] + Nc1nc2[nH]cc(CCc3ccc(C(=O)N[C@@H](CCC(=O)O)C(=O)O)cc3)c2c(=O)[nH]1 [Pemetrexed] (partner 0.2 µM) was tested, and the relative viability (HCC-78; first compound 0.005 µM) was 0.925, the relative viability (HCC-78; first compound 0.01581 µM) was 0.924 and the relative viability (HCC-78; first compound 0.05 µM) was 0.816. It also gave a relative viability (HCC-78; first compound 0.1581 µM) of 0.885, a relative viability (HCC-78; first compound 0.5 µM) of 0.913 and a relative viability (SK-LU-1; first compound 0.005 µM) of 1. The relative viability (SK-LU-1; first compound 0.01581 µM) was 0.928, the relative viability (SK-LU-1; first compound 0.05 µM) was 0.997 and the relative viability (SK-LU-1; first compound 0.1581 µM) was 0.905. For the same molecule, the relative viability (SK-LU-1; first compound 0.5 µM) was 0.991, the relative viability (NCI-H2085; first compound 0.005 µM) was 0.925 and the relative viability (NCI-H2085; first compound 0.01581 µM) was 0.964. The relative viability (NCI-H2085; first compound 0.05 µM) was 0.872, the relative viability (NCI-H2085; first compound 0.1581 µM) was 0.9 and the relative viability (NCI-H2085; first compound 0.5 µM) was 0.899. The relative viability (NCI-H358; first compound 0.005 µM) was 0.181, the relative viability (NCI-H358; first compound 0.01581 µM) was 0.18 and the relative viability (NCI-H358; first compound 0.05 µM) was 0.161. The relative viability (NCI-H358; first compound 0.1581 µM) was 0.175, the relative viability (NCI-H358; first compound 0.5 µM) was 0.176 and the relative viability (NCI-H1666; first compound 0.005 µM) was 0.829. It also gave a relative viability (NCI-H1666; first compound 0.01581 µM) of 0.877, a relative viability (NCI-H1666; first compound 0.05 µM) of 0.932 and a relative viability (NCI-H1666; first compound 0.1581 µM) of 0.797. For the same molecule, the relative viability (NCI-H1666; first compound 0.5 µM) was 0.75, the relative viability (NCI-H1915; first compound 0.005 µM) was 0.518 and the relative viability (NCI-H1915; first compound 0.01581 µM) was 0.467. For the same molecule, the relative viability (NCI-H1915; first compound 0.05 µM) was 0.504, the relative viability (NCI-H1915; first compound 0.1581 µM) was 0.468 and the relative viability (NCI-H1915; first compound 0.5 µM) was 0.46. It also gave a relative viability (EPLC-272H; first compound 0.005 µM) of 0.337, a relative viability (EPLC-272H; first compound 0.01581 µM) of 0.317 and a relative viability (EPLC-272H; first compound 0.05 µM) of 0.335. The relative viability (EPLC-272H; first compound 0.1581 µM) was 0.284, the relative viability (EPLC-272H; first compound 0.5 µM) was 0.288 and the relative viability (COR-L 105; first compound 0.005 µM) was 0.919. The relative viability (COR-L 105; first compound 0.01581 µM) was 1.08, the relative viability (COR-L 105; first compound 0.05 µM) was 1.34 and the relative viability (COR-L 105; first compound 0.1581 µM) was 1.13. For the same molecule, the relative viability (COR-L 105; first compound 0.5 µM) was 1.27, the relative viability (SW 900; first compound 0.005 µM) was 0.463 and the relative viability (SW 900; first compound 0.01581 µM) was 0.465. It also gave a relative viability (SW 900; first compound 0.05 µM) of 0.507, a relative viability (SW 900; first compound 0.5 µM) of 0.493 and a relative viability (UMC-11; first compound 0.005 µM) of 0.807. The relative viability (UMC-11; first compound 0.01581 µM) was 0.698, the relative viability (UMC-11; first compound 0.05 µM) was 0.718 and the relative viability (UMC-11; first compound 0.1581 µM) was 0.619. For the same molecule, the relative viability (UMC-11; first compound 0.5 µM) was 0.755, the relative viability (HOP-62; first compound 0.005 µM) was 0.353 and the relative viability (HOP-62; first compound 0.01581 µM) was 0.301. For the same molecule, the relative viability (HOP-62; first compound 0.05 µM) was 0.245, the relative viability (HOP-62; first compound 0.1581 µM) was 0.36 and the relative viability (HOP-62; first compound 0.5 µM) was 0.232. The relative viability (NCI-H1793; first compound 0.005 µM) was 0.643, the relative viability (NCI-H1793; first compound 0.01581 µM) was 0.854 and the relative viability (NCI-H1793; first compound 0.05 µM) was 1.04. It also gave a relative viability (NCI-H1793; first compound 0.5 µM) of 0.999, a relative viability (NCI-H460; first compound 0.005 µM) of 0.0664 and a relative viability (NCI-H460; first compound 0.01581 µM) of 0.0619. For the same molecule, the relative viability (NCI-H460; first compound 0.05 µM) was 0.0637, the relative viability (NCI-H460; first compound 0.1581 µM) was 0.063 and the relative viability (NCI-H460; first compound 0.5 µM) was 0.0689. The relative viability (NCI-H1792; first compound 0.005 µM) was 0.865, the relative viability (NCI-H1792; first compound 0.01581 µM) was 0.792 and the relative viability (NCI-H1792; first compound 0.05 µM) was 1.02. The relative viability (NCI-H1792; first compound 0.5 µM) was 1, the relative viability (LU99A; first compound 0.005 µM) was 0.161 and the relative viability (LU99A; first compound 0.01581 µM) was 0.176. It also gave a relative viability (LU99A; first compound 0.05 µM) of 0.19, a relative viability (LU99A; first compound 0.1581 µM) of 0.22 and a relative viability (LU99A; first compound 0.5 µM) of 0.193. The relative viability (NCI-H2170; first compound 0.005 µM) was 0.24, the relative viability (NCI-H2170; first compound 0.01581 µM) was 0.262 and the relative viability (NCI-H2170; first compound 0.05 µM) was 0.56. The relative viability (NCI-H2170; first compound 0.5 µM) was 0.255, the relative viability (NCI-H1944; first compound 0.005 µM) was 0.545 and the relative viability (NCI-H1944; first compound 0.01581 µM) was 0.568. It also gave a relative viability (NCI-H1944; first compound 0.05 µM) of 0.652, a relative viability (NCI-H1944; first compound 0.1581 µM) of 0.659 and a relative viability (NCI-H1944; first compound 0.5 µM) of 0.611. For the same molecule, the relative viability (HCC-366; first compound 0.005 µM) was 0.16, the relative viability (HCC-366; first compound 0.01581 µM) was 0.192 and the relative viability (HCC-366; first compound 0.05 µM) was 0.162. For the same molecule, the relative viability (HCC-366; first compound 0.1581 µM) was 0.234, the relative viability (HCC-366; first compound 0.5 µM) was 0.126 and the relative viability (A-427; first compound 0.005 µM) was 0.973. It also gave a relative viability (A-427; first compound 0.01581 µM) of 0.952, a relative viability (A-427; first compound 0.05 µM) of 0.961 and a relative viability (A-427; first compound 0.1581 µM) of 0.926. For the same molecule, the relative viability (A-427; first compound 0.5 µM) was 0.979, the relative viability (NCI-H2009; first compound 0.005 µM) was 0.994 and the relative viability (NCI-H2009; first compound 0.01581 µM) was 1.04. For the same molecule, the relative viability (NCI-H2009; first compound 0.05 µM) was 0.995, the relative viability (NCI-H2009; first compound 0.1581 µM) was 1.06 and the relative viability (NCI-H2009; first compound 0.5 µM) was 0.933. It also gave a relative viability (LXF-289; first compound 0.005 µM) of 0.853, a relative viability (LXF-289; first compound 0.01581 µM) of 0.9 and a relative viability (LXF-289; first compound 0.05 µM) of 0.929. It also gave a relative viability (LXF-289; first compound 0.1581 µM) of 1.04, a relative viability (LXF-289; first compound 0.5 µM) of 0.887 and a relative viability (LC-2-ad; first compound 0.005 µM) of 0.245. The relative viability (LC-2-ad; first compound 0.01581 µM) was 0.289, the relative viability (LC-2-ad; first compound 0.05 µM) was 0.274 and the relative viability (LC-2-ad; first compound 0.1581 µM) was 0.286. It also gave a relative viability (LC-2-ad; first compound 0.5 µM) of 0.245.
